Drawing on PMC4840437, “Crystal Structures and Binding Dynamics of Odorant-Binding Protein 3 from two aphid species Megoura viciae and Nasonovia ribisnigri” (Scientific Reports, 2016), this text covers Ki and Kd for five compounds.

In assay [1] the target is T1, MvicOBP3 (Megoura viciae, UniProt A0A0S2E5N6).
T1 sequence (A0A0S2E5N6 2-122): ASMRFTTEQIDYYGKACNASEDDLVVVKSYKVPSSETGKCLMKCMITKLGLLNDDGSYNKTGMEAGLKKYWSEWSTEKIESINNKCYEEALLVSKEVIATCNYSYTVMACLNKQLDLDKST
Briefly: Competitive fluorescence binding assay (NPN displacement). As for the experimental part:
(§1) Proteins were dissolved in 20 mM Tris-HCl buffer pH 7.4 and emission fluorescence spectra were recorded on a LS50 Luminescence Spectrometer (PerkinElmer, Buckinghamshire, UK) at 22 °C in a right angle configuration, with a 1 cm light path quartz cuvette and 5–10 nm slits for excitation and emission. […] The probe was excited at 337 nm and emission spectra were recorded between 380 and 450 nm. […] For determining binding constants, the intensity values corresponding to the maximum fluorescence emission were plotted against free ligand concentrations. We use GraphPad (http://www.graphpad.com/guides/prism/6/curve-fitting/index.htm?reg_one_site_competition_ki.htm) to determine the equilibrium dissociation constant Ki of ligand by measuring its competition for NPN and nonlinear regression curve fitting to the one site competitive binding model. This model fits the Ki of the ligand directly using the fixed concentration of NPN and the dissociation constant for NPN KNPN obtained from a direct fluorescence titration and nonlinear regression curve fitting to one site binding model Y = Bmax*X/(KNPN + X) + NS*X (X is the NPN concentration, Bmax is the maximum specific binding in the same units as Y, NS is the slope of nonspecific binding in Y units divided by X units). The corrected Ki is fitted directly rather than fitting an IC50 and modifying it with the Cheng and Prusoff equation[48]. The analysis assumes that the protein has one binding site and 100% active, and that the binding is reversible and at equilibrium. Tested compounds were EβF (Bedoukian Research, Danbury, CT, USA), β-pinene, (−)-α-pinene and (+)-limonene (Sigma, St. Louis, MO).

Assay [2] addresses T2, NribOBP3 (Nasonovia ribisnigri, UniProt A0A0M4AUH6).
T2 sequence (A0A0M4AUH6 1-119): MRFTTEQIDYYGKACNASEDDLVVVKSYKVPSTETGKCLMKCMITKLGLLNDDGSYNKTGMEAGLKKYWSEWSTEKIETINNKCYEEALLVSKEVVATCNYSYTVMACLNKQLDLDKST
The description is as above. On the procedure:
as §1

For assay [3], the target named is T1, MvicOBP3. Briefly: Direct fluorescence titration of the probe NPN. Type of assay: binding. The following applies: recombinant MvicOBP3, 2 μM protein, 20 mM Tris-HCl pH 7.4, 22 °C; read-out: Kd of fluorescent probe NPN. As for the experimental part:
as §1, with “The analysis assumes that the protein has one binding site and 100% active, and that the binding is reversible and at equilibrium. Tested compounds were EβF (Bedoukian Research, Danbury, CT, USA), β-pinene, (−)-α-pinene and (+)-limonene (Sigma, St. Louis, MO).” left out

Assay [4] deals with T2, NribOBP3. Description: Direct fluorescence titration of the probe NPN. Format: binding. As to conditions: recombinant NribOBP3, 2 μM protein, 20 mM Tris-HCl pH 7.4, 22 °C; read-out: Kd of fluorescent probe NPN. On the procedure: as §1, with “The analysis assumes that the protein has one binding site and 100% active, and that the binding is reversible and at equilibrium. Tested compounds were EβF (Bedoukian Research, Danbury, CT, USA), β-pinene, (−)-α-pinene and (+)-limonene (Sigma, St. Louis, MO).” left out

[5] abbreviates: displacement of NPN (2 μM) from MvicOBP3/NPN complex, one site competitive binding model, read-out: Competitive inhibitor binding constant (Ki).
The mark [6] stands for this setting: displacement of NPN (2 μM) from NribOBP3/NPN complex, one site competitive binding model, read-out: Competitive inhibitor binding constant (Ki).

Like-named read-outs stand apart in the source and are kept apart here.

For `C=C(C)C1CC=C(C)CC1` (single isomer, unassigned; (+)) [(+)-limonene], at MvicOBP3 [1] (setting [5]), the Ki – broadly, the equilibrium dissociation constant of an inhibitor or competing ligand from its target – was determined as 2500 nM.
With `C=CC(=C)CC/C=C(\C)CCC=C(C)C` [(E)-β-farnesene], the Ki on MvicOBP3 [1] (setting [5]) turned out to be 100 nM; at NribOBP3 [2] (setting [6]) it was 5200 nM.
In the case of `CC1=CCC2CC1C2(C)C` (stereo not drawn) [(−)-α-pinene], the results for the Ki on MvicOBP3 [1] (setting [5]) and at NribOBP3 [2] (setting [6]) were 1800 nM and 20200 nM, respectively.
As for `c1ccc(Nc2cccc3ccccc23)cc1` [NPN, N-phenyl-1-naphthylamine], the Kd – broadly, the equilibrium constant for the complex coming apart – at MvicOBP3 [3] amounted to 1900 nM; on NribOBP3 [4] it was 9000 nM.
`C=C1CCC2CC1C2(C)C` (stereo not drawn) [β-pinene]: the Ki on MvicOBP3 [1] is 2300 nM; on NribOBP3 [2] it was 30700 nM.
